Assay results reported in publication PMC11995216, “End-to-End Backbone Cyclization Enhances Passive Permeability of bRo5 Oligomeric Depsipeptides with Nonlinear Size Dependence” (ACS Medicinal Chemistry Letters, 2025).
“And” between values parts separate entries of the source, which are not always exact repeats. Equal values may be shown once. Read-outs that look alike come from different tables or passages of the source. Starred links: 1 amine or outer side, 2 acyl side, 3 side chain; linkers in the order of their positions; H or OH if unused. Non-standard residues stand in square brackets, D forms with d. Residues, ends and D or L forms follow the SMILES beside them. X1 = CCCCC[C@H](O[*:1])C(=O)[*:2]; Ahp(2) = CCCCC[C@H](N)C(=O)O; dNMeA = CN[C@H](C)C(=O)O

Key:
[1] = PAMPA, cited from earlier work; for LogPapp: ratio-based method, series 2 macrocycles, previously reported, ref Thorpe et al., Chem. Sci. 2024, 15, 14977
PAMPA [2] = conditions: initial concentration 500 uM, UV detection
PAMPA [3] = conditions: calculated using Supplement Equation 1, UV detection
in vitro = conditions: PAMPA, Papp
PAMPA [4] = tested on: PAMPA
PAMPA [5] = conditions: Well 3 / [acc]; Well 3; initial concentration 500 uM; UV detection
PAMPA [6] = conditions: UV detection
[7] = PAMPA, 500 uM
PAMPA [8] = conditions: initial concentration 500 uM
[9] = PAMPA, permeability assay across an artificial membrane; conditions: increase: difference between percent diffusion of macrocycle vs linear counterpart
Caco‐2 = experiment: Experimental Caco‐2 permeability; type: in vitro ADME; conditions: Caco‐2 experiments, series 2
Protocol: Johnston et al. Supporting information
5.1 Comparison of Experimental Caco‐2 Papp to Calculated LogP
Experimental Caco‐2 vs. Calculated Permeabilities fo r Series 2
*C2.3 was not detected in Caco‐2 experiments
VI. LC/MS and ELSD Traces
In all cases, the large peak near the beginning of the run (R.T. 2‐6 minutes), is the DMSO solvent front.
(also on this page, place not known: 00 . 511 . 522 . 533 . 5 Caco2 Papp (x 10‐6 cm/s) Experimental for)

For `CC(C)NC[C@H](O)COc1cccc2ccccc12` [(S)‐Propranolol, reference compound], the “Literature Papp” value ([1]; ref Schmidt, D., Lynch, J. 2003, Millipore) is given as 10.0 x 10‐6.
With `CCCCC[C@@H]1OC(=O)[C@@H](C)N(C)C1=O` [Compound C1.1] the donor concentration after incubation (PAMPA [2]; Well 1 / [donor], Well 1) was 259 µM and 253 µM, the donor concentration after incubation (PAMPA [2]; Well 2 / [donor], Well 2) was 262 µM and 271 µM and the donor concentration after incubation (PAMPA [2]; Well 3 / [donor], Well 3) was 267 µM and 276 µM. The donor concentration after incubation (PAMPA [2]; Well 4 / [donor], Well 4) was 264 µM and 266 µM, the donor concentration after incubation (PAMPA [2]; Well 5 / [donor], Well 5) was 250 µM and 261 µM and the %T (PAMPA [3]; Well 1 / %T, Well 1) was 0.91% and 0.93%. The %T (PAMPA [3]; Well 2 / %T, Well 2) was 0.86% and 0.92%, the %T (PAMPA [3]; Well 3 / %T, Well 3) was 0.89% and the %T (PAMPA [3]; Well 4 / %T, Well 4) was 0.92% and 0.96%. For the same molecule, the %T (PAMPA [3]; Well 5 / %T, Well 5) was 0.93% and 0.99%, the Papp at 500 uM (in vitro) was 14.6 ± 2.38 ×10⁻⁶ cm/s and the Papp at 500 uM (in vitro; Ave) was 14.1 ×10⁻⁶ cm/s. For the same molecule, the Papp (PAMPA [4]; Papp (x 10^-6 cm/s) – ELSD Detection / [row 1], ELSD Detection) was 14.3 ×10⁻⁶ cm/s, the Papp (PAMPA [4]; Papp (x 10^-6 cm/s) – ELSD Detection / [row 2], ELSD Detection) was 13.6 ×10⁻⁶ cm/s and the Papp (PAMPA [4]; Papp (x 10^-6 cm/s) – ELSD Detection / [row 3], ELSD Detection) was 13.9 ×10⁻⁶ cm/s. For the same molecule, the Papp (PAMPA [4]; Papp (x 10^-6 cm/s) – ELSD Detection / [row 4], ELSD Detection) was 15.4 ×10⁻⁶ cm/s, the Papp (PAMPA [4]; Papp (x 10^-6 cm/s) – ELSD Detection / [row 5], ELSD Detection) was 15 ×10⁻⁶ cm/s and the Papp (PAMPA [4]; Papp (x 10^-6 cm/s) – ELSD Detection / [row 6], ELSD Detection) was 11.7 ×10⁻⁶ cm/s. The Papp (PAMPA [4]; Papp (x 10^-6 cm/s) – ELSD Detection / [row 7], ELSD Detection) was 14.1 ×10⁻⁶ cm/s, the Papp (PAMPA [4]; Papp (x 10^-6 cm/s) – ELSD Detection / [row 8], ELSD Detection) was 15 ×10⁻⁶ cm/s and the Papp (PAMPA [4]; Papp (x 10^-6 cm/s) – ELSD Detection / [row 9], ELSD Detection) was 14.8 ×10⁻⁶ cm/s. It also gave a Papp (PAMPA [4]; Papp (x 10^-6 cm/s) – ELSD Detection / [row 10], ELSD Detection) of 13.6 ×10⁻⁶ cm/s, a Papp (PAMPA [4]; Papp (x 10^-6 cm/s) – UV Detection / [row 1], UV Detection) of 15.1 ×10⁻⁶ cm/s and a Papp (PAMPA [4]; Papp (x 10^-6 cm/s) – UV Detection / [row 2], UV Detection) of 14.2 ×10⁻⁶ cm/s. The Papp (PAMPA [4]; Papp (x 10^-6 cm/s) – UV Detection / [row 3], UV Detection) was 12.7 ×10⁻⁶ cm/s, the Papp (PAMPA [4]; Papp (x 10^-6 cm/s) – UV Detection / [row 4], UV Detection) was 18 ×10⁻⁶ cm/s and the Papp (PAMPA [4]; Papp (x 10^-6 cm/s) – UV Detection / [row 5], UV Detection) was 19 ×10⁻⁶ cm/s. The Papp (PAMPA [4]; Papp (x 10^-6 cm/s) – UV Detection / [row 6], UV Detection) was 13.8 ×10⁻⁶ cm/s, the Papp (PAMPA [4]; Papp (x 10^-6 cm/s) – UV Detection / [row 7], UV Detection) was 11.2 ×10⁻⁶ cm/s and the Papp (PAMPA [4]; Papp (x 10^-6 cm/s) – UV Detection / [row 8], UV Detection) was 12.7 ×10⁻⁶ cm/s. The Papp (PAMPA [4]; Papp (x 10^-6 cm/s) – UV Detection / [row 9], UV Detection) was 14.3 ×10⁻⁶ cm/s, the Papp (PAMPA [4]; Papp (x 10^-6 cm/s) – UV Detection / [row 10], UV Detection) was 15 ×10⁻⁶ cm/s and the acceptor concentration after incubation (PAMPA [5]) was 193 µM. For the same molecule, the % recovery (PAMPA [6]; Well 1 / %R, Well 1) was 93% and 89%, the % recovery (PAMPA [6]; Well 2 / %R, Well 2) was 93% and 90% and the % recovery (PAMPA [6]; Well 3 / %R, Well 3) was 92% and 95%. For the same molecule, the % recovery (PAMPA [6]; Well 4 / %R, Well 4) was 99% and 95%, the % recovery (PAMPA [6]; Well 5 / %R, Well 5) was 99% and the Δ % diffusion [7] was “↑22%”. For the same molecule, the Acceptor Concentration (PAMPA [8]; Acceptor Concentration (uM) – ELSD Detection / [row 1], ELSD Detection) was 225 µM, the Acceptor Concentration (PAMPA [8]; Acceptor Concentration (uM) – ELSD Detection / [row 2], ELSD Detection) was 205 µM and the Acceptor Concentration (PAMPA [8]; Acceptor Concentration (uM) – ELSD Detection / [row 3], ELSD Detection) was 212 µM. It also gave an Acceptor Concentration (PAMPA [8]; Acceptor Concentration (uM) – ELSD Detection / [row 4], ELSD Detection) of 216 µM, an Acceptor Concentration (PAMPA [8]; Acceptor Concentration (uM) – ELSD Detection / [row 5], ELSD Detection) of 207 µM and an Acceptor Concentration (PAMPA [8]; Acceptor Concentration (uM) – ELSD Detection / [row 6], ELSD Detection) of 206 µM. The Acceptor Concentration (PAMPA [8]; Acceptor Concentration (uM) – ELSD Detection / [row 7], ELSD Detection) was 216 µM, the Acceptor Concentration (PAMPA [8]; Acceptor Concentration (uM) – ELSD Detection / [row 8], ELSD Detection) was 218 µM and the Acceptor Concentration (PAMPA [8]; Acceptor Concentration (uM) – ELSD Detection / [row 9], ELSD Detection) was 208 µM. The Acceptor Concentration (PAMPA [8]; Acceptor Concentration (uM) – ELSD Detection / [row 10], ELSD Detection) was 202 µM, the Acceptor Concentration (PAMPA [8]; Acceptor Concentration (uM) – UV Detection / [row 1], UV Detection) was 208 µM and the Acceptor Concentration (PAMPA [8]; Acceptor Concentration (uM) – UV Detection / [row 2], UV Detection) was 204 µM. For the same molecule, the Acceptor Concentration (PAMPA [8]; Acceptor Concentration (uM) – UV Detection / [row 3], UV Detection) was 193 µM, the Acceptor Concentration (PAMPA [8]; Acceptor Concentration (uM) – UV Detection / [row 4], UV Detection) was 231 µM and the Acceptor Concentration (PAMPA [8]; Acceptor Concentration (uM) – UV Detection / [row 5], UV Detection) was 245 µM. For the same molecule, the Acceptor Concentration (PAMPA [8]; Acceptor Concentration (uM) – UV Detection / [row 6], UV Detection) was 193 µM, the Acceptor Concentration (PAMPA [8]; Acceptor Concentration (uM) – UV Detection / [row 7], UV Detection) was 178 µM and the Acceptor Concentration (PAMPA [8]; Acceptor Concentration (uM) – UV Detection / [row 8], UV Detection) was 199 µM. For the same molecule, the Acceptor Concentration (PAMPA [8]; Acceptor Concentration (uM) – UV Detection / [row 9], UV Detection) was 208 µM and the Acceptor Concentration (PAMPA [8]; Acceptor Concentration (uM) – UV Detection / [row 10], UV Detection) was 209 µM.
For `CCCCC[C@@H]1NC(=O)[C@@H](C)N(C)C(=O)[C@H](CCCCC)OC(=O)[C@@H](C)N(C)C(=O)[C@H](CCCCC)OC(=O)[C@@H](C)N(C)C(=O)[C@H](CCCCC)OC(=O)[C@@H](C)N(C)C1=O` [Compound C2.1] (cyclo([Ahp(2)][dNMeA][X1][dNMeA][X1][dNMeA][X1][dNMeA])), the Δ % diffusion [9] is given as “↑19%” and the LogPapp [1] is given as -4.91 ± 0.09.
For `CCCCC[C@@H]1NC(=O)[C@@H](C)N(C)C(=O)[C@H](CCCCC)OC(=O)[C@@H](C)N(C)C(=O)[C@H](CCCCC)OC(=O)[C@@H](C)N(C)C(=O)[C@H](CCCCC)NC(=O)[C@@H](C)N(C)C1=O` [Compound C2.2] (cyclo([Ahp(2)][dNMeA][Ahp(2)][dNMeA][X1][dNMeA][X1][dNMeA])), the Δ % diffusion [9] is listed as “↑17%” and the LogPapp [1] is listed as -5.05 ± 0.03.
In the case of `CCCCC[C@@H]1NC(=O)[C@@H](C)N(C)C(=O)[C@H](CCCCC)OC(=O)[C@@H](C)N(C)C(=O)[C@H](CCCCC)NC(=O)[C@@H](C)N(C)C(=O)[C@H](CCCCC)OC(=O)[C@@H](C)N(C)C1=O` [Compound C2.3] (cyclo([Ahp(2)][dNMeA][X1][dNMeA][Ahp(2)][dNMeA][X1][dNMeA])), the “Experimental Caco‐2 Papp” value (Caco‐2) is listed as “not detected”, the Δ % diffusion [9] is listed as “↑10%” and the LogPapp [1] is listed as -5.23 ± 0.04.
In the case of `CCCCC[C@@H]1NC(=O)[C@@H](C)N(C)C(=O)[C@H](CCCCC)NC(=O)[C@@H](C)N(C)C(=O)[C@H](CCCCC)OC(=O)[C@@H](C)N(C)C(=O)[C@H](CCCCC)NC(=O)[C@@H](C)N(C)C1=O` [Compound C2.4] (cyclo([Ahp(2)][dNMeA][Ahp(2)][dNMeA][Ahp(2)][dNMeA][X1][dNMeA])), the Δ % diffusion [9] is given as “↑7%” and the LogPapp [1] is given as -5.33 ± 0.07.
For `CCCCC[C@@H]1NC(=O)[C@@H](C)N(C)C(=O)[C@H](CCCCC)NC(=O)[C@@H](C)N(C)C(=O)[C@H](CCCCC)NC(=O)[C@@H](C)N(C)C(=O)[C@H](CCCCC)NC(=O)[C@@H](C)N(C)C1=O` [Compound C2.5] (cyclo([Ahp(2)][dNMeA][Ahp(2)][dNMeA][Ahp(2)][dNMeA][Ahp(2)][dNMeA])), the LogPapp [1] is listed as -5.31 ± 0.04 and the Δ % diffusion [7] is listed as “↑6%”.
